Measurements taken from patent publication US20240307372A1, “COMPOSITIONS AND METHODS TO IMPROVE BENEFIT OF SUBOPTIMALLY ADMINISTERED THERAPEUCTICS FOR THE TREATMENT OF BENIGN AND NEOPLASTIC DISEASES, INFECTIONS, INFLAMMATORY, METABOLIC AND IMMUNOLOGIAL DISEASES” (priority 2023, published 2024).

Target: T1, CAMKII gamma (Homo sapiens, UniProt Q13555)
T1 construct: purchased Promega V3531
Experiment: CAMKII gamma kinase activity, ADP Glo (Promega)
Type: biochemical
Settings: 10 uM ATP
Procedure: An enzymatic study was conducted to evaluate the inhibition of CAMKII gamma by ES-3000 (Tetrandrine). CAMKII gamma kinase activity was measured using […] purchased from Promega following the Promega protocol. CAMKII enzyme system purchased from Promega (V3531). ADP Glo was used for detection. Assay optimized for linearity of protein and time. Conditions for inhibitor screening 25 ng CAMKII, 20 min. incubations, inhibitor or DMSO (5%) at RT in 20 uL total volume. Inhibitor, ATP (10 or 50 uM), substrates and buffer added to tubes and reactions started with enzyme. […] Reactions terminated at 20 min. by adding ADP Glo reaction following manufactures instructions. All reactions were done in duplicate. Calculations of percent (%) inhibition determined by dividing the mean activity at each condition by the mean of the DMSO control times 100.

T1 sequence (Q13555 whole entry): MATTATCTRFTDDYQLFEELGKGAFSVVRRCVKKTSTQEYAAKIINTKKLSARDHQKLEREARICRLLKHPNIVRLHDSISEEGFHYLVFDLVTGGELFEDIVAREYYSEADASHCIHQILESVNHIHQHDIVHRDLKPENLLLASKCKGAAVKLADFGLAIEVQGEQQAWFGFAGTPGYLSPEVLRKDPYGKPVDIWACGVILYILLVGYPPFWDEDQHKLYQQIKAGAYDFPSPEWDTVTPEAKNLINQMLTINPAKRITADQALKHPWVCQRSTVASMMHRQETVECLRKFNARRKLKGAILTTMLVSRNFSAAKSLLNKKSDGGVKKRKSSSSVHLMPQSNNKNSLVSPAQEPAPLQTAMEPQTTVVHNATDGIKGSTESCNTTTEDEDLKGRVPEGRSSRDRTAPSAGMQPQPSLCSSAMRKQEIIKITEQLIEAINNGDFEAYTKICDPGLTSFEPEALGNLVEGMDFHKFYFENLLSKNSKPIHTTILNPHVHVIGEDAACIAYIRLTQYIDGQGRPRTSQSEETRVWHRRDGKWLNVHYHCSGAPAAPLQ

SMILES: COc1cc2c3cc1Oc1c(OC)c(OC)cc4c1[C@@H](Cc1ccc(O)c(c1)Oc1ccc(cc1)C[C@@H]3N(C)CC2)N(C)CC4 [berbamine, reference compound]
- % inhibition (30 uM): 37%
- inhibition at 30 µM (30 uM): 36.7%
- kinase activity, % of DMSO control (30 uM): 63%
- % inhibition (100 uM): 47%
- inhibition at 100 µM (100 uM): 47.1%
- kinase activity, % of DMSO control (100 uM): 53%
- % inhibition (250 uM): 46%
- inhibition at 250 µM (250 uM): 46.3%
- kinase activity, % of DMSO control (250 uM): 54%
